The source of these data is patent US20040048195A1, “Heat-sensitive lithographic printing plate precursor” (AGFA-GEVAERT, priority 2002, published 2004).

Common to all, as to type: physicochemical
Series [1] in a line: Solubility of the IR-dyes (supersaturated solution, filtration, spectrophotometric determination). To be noted: for solubility: thermodynamic from solid. As to the method:
The solubility of the IR-dyes IR-1 to −5 and of a comparison dye Cl (commercially available from FEW Chemicals GmbH) was determined as follows:
the extinction coefficient of the dyes was measured in methanol with a HP8453 UV/VIS/NIR spectrophotometer;
a supersaturated solution of the dyes in a) 2-methoxyl-propanol (MOP) and b) water/NaOH (pH=9) was prepared; after filtration the concentration of dissolved dye was determined by dissolution with methanol using the previous determined extinction coefficient. [drawing 8]

The nature of series [2]: Test of inhibiting capability of the dyes: dissolution time of unexposed novolac/dye coating in Agfa EP26 developer. Conditions: dye 35 mg/m^2 in 0.9 g/m^2 novolac, Agfa EP26 developer at 20° C., reference without dye 30 sec. The method, then: A layer of novolac (Alnovol SPN452 from Clariant, a 40.5 wt. % solution in methoxypropanol) and the dyes specified in Table 2 were coated on the above support. After drying during 1 min at 130° C., the samples contained 0.9 g/m^2 of novolac. A series of unexposed samples is immersed in Agfa EP26 developer at 20° C., each sample during a different time period. After the immersion period, the sample was removed from the developer, immediately rinsed with water, dried and then the dissolution of the coating in the developer was measured by comparing the weight of the sample before and after the development. As soon as the coating is dissolved completely, no more weight loss is measured upon longer immersion time periods, i.e. a curve representing weight loss as a function of immersion time reaches a plateau from the moment of complete dissolution of the layer, which is referred to herein as “dissolution time”. When the dissolution time of the sample containing the IR dye is longer than the dissolution time of the sample without the IR dye, then the IR dye clearly acts as an inhibitor.

Series [3] in a line: Solubility of the IR-dyes (supersaturated solution, filtration, spectrophotometric determination). Conditions: water/NaOH, pH 11.7, aqueous buffer, thermodynamic from solid, insoluble at pH = 9; NaOH was added until pH = 11.7; read-out: Solubility in H2O/NaOH.

The structures appear in SMILES notation. Where two headings read alike, the source gives them in different places.

As for `CN1/C(=C/C=C2\CCCC(/C=C/C3=[N+](C)c4ccc5ccccc5c4C3(C)C)=C2Cl)C(C)(C)c2c1ccc1ccccc21` [Comparison, reference compound], the solubility in series [1] (2-methoxyl-propanol (MOP), organic solvent or mixture, 2-methoxyl-propanol (MOP), read-out: Solubility in MOP) was 50.1 mg/mL; in series [3] it was less than 0.002 mg/mL. The Dissolution time in series [2] was 60 s.

As to `CC1(C)C(/C=C/C2=C(Sc3ccccc3C(=O)O)C(=C/C=C3/N(CCCCS(=O)(=O)[O-])c4ccccc4C3(C)C)/CCC2)=[N+](CCCCS(=O)(=O)[O-])c2ccccc21.[K+]` [IR-dye 1], the “Solubility in MOP” value in series [1] (2-methoxyl-propanol (MOP)) was 3.8 mg/mL. Moreover, in series [1] (water/NaOH, pH = 9), the “Solubility in H2O/NaOH at pH = 9” value was 40.1 g/l. In series [2] (listed as IR-1), this compound returned a Dissolution time of 30 s.

As for `CC1(C)C(/C=C/C2=C(Sc3ccccc3C(=O)O)C(=C/C=C3/N(CCCCS(=O)(=O)[O-])c4ccccc4C3(C)C)/CCC2)=[N+](CCCCS(=O)(=O)[O-])c2ccccc21.[K+]` [IR-dye 2], the “Solubility in MOP” value in series [1] (2-methoxyl-propanol (MOP)) amounted to 0.42 mg/mL. The “Solubility in H2O/NaOH at pH = 9” value in series [1] (water/NaOH, pH = 9) was more than 50 g/l. In series [2] (listed as IR-2), the Dissolution time is 20 s.

On to `CC1(C)C(/C=C/C2=C(Sc3ccccc3C(=O)O)C(=C/C=C3/N(CCCCS(=O)(=O)[O-])c4ccccc4C3(C)C)/CCC2)=[N+](CCCCS(=O)(=O)[O-])c2ccccc21.[K+]` [IR-dye 3], for which the “Solubility in MOP” value in series [1] (2-methoxyl-propanol (MOP)) is more than 100 mg/mL. Moreover, the “Solubility in H2O/NaOH at pH = 9” value in series [1] (water/NaOH, pH = 9) was more than 50 g/l. Moreover, the Dissolution time in series [2] (listed as IR-3) is 30 s.

With `CC1(C)C(/C=C/C2=C(Sc3ccccc3C(=O)O)C(=C/C=C3/N(CCCCS(=O)(=O)[O-])c4ccccc4C3(C)C)/CCC2)=[N+](CCCCS(=O)(=O)[O-])c2ccccc21.[K+]` [IR-dye 4], in series [1] (2-methoxyl-propanol (MOP)), the “Solubility in MOP” value worked out at 5.7 mg/mL. Besides, the “Solubility in H2O/NaOH at pH = 9” value in series [1] (water/NaOH, pH = 9) was more than 50 g/l. Further, in series [2] (listed as IR-4), the Dissolution time was determined as 20 s.

As for `CC1(C)C(/C=C/C2=C(Sc3ccccc3C(=O)O)C(=C/C=C3/N(CCCCS(=O)(=O)[O-])c4ccccc4C3(C)C)/CCC2)=[N+](CCCCS(=O)(=O)[O-])c2ccccc21.[K+]` [IR-dye 5], the solubility was 91.3 mg/mL in series [1] (2-methoxyl-propanol (MOP) with tri-ethylamine, organic solvent or mixture, 2-methoxyl-propanol (MOP), tri-ethylamine was added to dissolve the dye, read-out: Solubility in MOP) and more than 50 mg/mL in series [1] (water/NaOH, pH 9, aqueous buffer, water/NaOH, pH = 9, read-out: Solubility in H2O/NaOH at pH = 9). This compound also had a Dissolution time in series [2] (listed as IR-5) of 25 s.
